Experimental data as given in patent publication US5668134A, “Method for preventing or reducing photosensitivity and/or phototoxicity reactions to medications” (priority 1994, dated 1997).
Counter-ions that a name gives are not always drawn.

Key:
Haemophilus influenzae = test: Activity in vitro and in clinical infections; format: cell-based
[1] = tested on: Moraxella (Branhamella) catarrhalis; test: Activity in vitro and in clinical infections; format: cell-based
Proteus mirabills = test: Activity in vitro and in clinical infections; format: cell-based
[2] = Example 1: general pharmacokinetics in volunteers; format: in vivo, human
Procedure: In 6 fasting healthy male volunteers, approximately 95% to 98% of a single oral dose of lomefloxacin HCl was absorbed. […] Mean plasma concentration increased proportionally between 100 and 400 mg as shown below.
In 6 healthy male volunteers administered 400 mg of lomefloxacin HCl on an empty stomach q.d. for 7 days, the following mean pharmacokinetic parameter values were obtained: [formula]
The elimination half-life in 8 subjects with normal renal function was approximately 8 hours. At 24 hours post dose, subjects with normal renal function receiving single doses of 200 or 400 mg lomefloxacin HCl had mean plasma lomefloxacin HCl concentrations of 0.10 and 0.24 μg/ml, respectively. Steady-state concentrations were achieved within 48 hours of initiating therapy with once-a-day dosing.
Approximately 65% of an orally administered dose of lomefloxacin HCl was excreted in the urine as unchanged drug in patients with normal renal function. Following a 400 mg dose of lomefloxacin HCl administered q.d. for 7 days, the mean urine concentration was in excess of 300 μg/ml 4 hours post dose. The mean urine concentration exceeded 35 μg/ml for at least 24 hours after dosing.
The urinary excretion of lomefloxacin HCl was virtually complete within 72 hours after cessation of dosing, with approximately 65% of the dose being recovered as parent drug and 9% as its glucuronide metabolite.

[3] = Solubility of lomefloxacin HCl in urine; format: physicochemical; conditions: human
Procedure: Following a single 400 mg dose of lomefloxacin HCl, the solubility of lomefloxacin HCl in urine usually exceeded its peak urinary concentration 2 to 6 fold.

[4] = Food effect on pharmacokinetics; format: in vivo, human
[5] = Pharmacokinetics in the geriatric population; format: in vivo, human
Excerpt: This slower elimination most likely reflects the decreased renal function normally observed in the geriatric population.

[6] = Pharmacokinetics in renally impaired patients; format: in vivo, human; conditions: single doses
[7] = tested on: skin of healthy volunteers; parameters: species or system human; conditions: in vivo
Procedure: This study describes a randomized, single site, double-blind, two treatment, two period, two sequence, cross-over clinical pharmacology study which was performed according to FDA regulations in 27 healthy normal volunteers with fair skin that could easily burn when exposed to sunlight, to assess the photosensitivity and/or phototoxicity potential of oral 400 mg lomefloxacin hydrochloride (MAXAQUIN®) administered once daily for 4 consecutive days either in the morning (morning dose group), as described hereinbelow, or in the early evening (evening dose group), as described hereinbelow. Irradiation and evaluation of irradiated sites began at 2 hours after the final morning dose of lomefloxacin HCl for the morning dosing group, and began 16 hours after the final evening dose of lomefloxacin HCl for the evening dosing group.
"Baseline MED" was defined as the lowest dose of UVA radiation alone, or UVA and UVB radiation, that produced a minimal perceptible erythema filling a 1 cm^2 patch of skin 24 hours post radiation.
"Delayed MED" was defined as the lowest dose of UVA radiation alone, or UVA and UVB radiation, that produced a minimal perceptible erythema filling a 1 cm^2 patch of skin, when testing the area 24, 48 and 72 hours post radiation.
"Immediate MED" was defined as the lowest dose producing minimal perceptible erythema filling a 1 cm^2 patch of skin when testing the area 0, 3, and 6 hours post radiation.
After all baseline procedures, including determination of baseline MEDUVA and MEDUVA+UVB values 24 hours post-radiation, were completed, all subjects started Study Day 1 of Treatment Period 1 with an evening dose of study medication, and completed this phase of the treatment regime with a morning dose of study medication on Study Day 5. Two hours after the final morning dose, and 16 hours after the last evening dose, a randomly selected site composed of six patches of skin, each with an area of one square centimeter, on the back or buttock of the subject was irradiated with incremental amounts of energy. Immediately following irradiation (0 hour), and at 3, 6, 24, 48 and 72 hours following irradiation, each skin patch area was evaluated to determine the MEDs, and assess the severity of skin reaction using a five-grade system, as described hereinbelow. The lowest of the MEDs determined at 0, 3 and 6 hours post-radiation were referred to as immediate MEDs, and the lowest of the MEDs determined at 24, 48 and 72 hours post-radiation were referred to as delayed MEDs.
The source of radiation employed was an Oriel (Santa Monica, Calif.) Xenon Arc 1000 watt solar simulator, with the following filters: WG320 filter (1 mm thick, emitting full spectrum UVA and UVB radiation), WG335 filter (3 mm thick, emitting almost exclusively UVA radiation) or UG11 filter (to filter infrared radiation).
For predrug exposure MED determination, 2 sets each with six 1 cm^2 patches on the back or buttocks were irradiated with increasing doses of UVA and UVB radiation, and UVA radiation alone, up to 7 days prior to beginning of drug treatment. With respect to UVA light source, irradiation began at 5 J/cm^2, and was increased by increments of 5 J/cm^2 using a different skin patch for each exposure. The maximum radiation dose was 30 J/cm^2. Subjects with MED greater than 30 J/cm^2 were excluded from the study. […] A different skin patch was used for each exposure.
Two hours after the administration of the last dose of Treatment Period 1 (a.m. dose), the two randomly selected sites on each subject's back or buttocks were exposed one to UVA and UVB radiation, and one to UVA radiation alone. In order to protect the subjects from excessive radiation, as well as assess the true Minimum Erythema Dose (MED), the posttreatment irradiation doses for each subject was adjusted in accordance with their pretreatment MEDs. The following table was used to determine each subject's minimum and maximum posttreatment radiation dose: […]

[8] = in vivo

SMILES: CCn1cc(C(=O)O)c(=O)c2cc(F)c(N3CCNC(C)C3)c(F)c21 (racemic) [lomefloxacin HCl, monohydrochloride salt of (±)-1-ethyl-6,8-difluoro-1,4-dihydro-7-(3-methyl-1-piperazinyl)-4-oxo-3-quinolinecarboxylic acid]
- activity against most strains (Haemophilus influenzae): active against most strains
- activity against most strains [1]: active against most strains
- activity against most strains (Proteus mirabills): active against most strains
- glucuronide metabolite recovered in urine ([2]; human, in vivo): 9%
- time to steady-state concentrations ([2]; human, in vivo): ≤ 48 h
- time to virtually complete urinary excretion ([2]; human, in vivo): ≤ 72 h
- CL renal ([2]; human, in vivo, po): 145 mL/min
- Fa ([2]; human, in vivo, po): 95 to 98%
- Tmax ([2]; human, in vivo, po): 0.8 to 1.4 h
- half-life ([2]; human, in vivo, po): ~8 h
- drug accumulation ([2]; single daily dosing, normal renal function): no drug accumulation
- solubility ([3]; pH 5.2): 7800 µg/mL
- solubility ([3]; pH 6.5): 2400 µg/mL
- solubility ([3]; pH 8.12): 3030 µg/mL
- decrease of Cmax with food [4]: 18%
- decrease of extent of absorption (AUC) with food [4]: 12%
- delay of Tmax with food [4]: 41%
- Tmax ([4]; human, in vivo, with food): 2 h
- increase of AUC ([5]; elderly vs younger subjects): approximately 33%
- reduction of plasma clearance ([5]; elderly vs younger subjects): approximately 25%
- half-life ([5]; human, in vivo, 16 elderly volunteers, single 400 mg dose): 8 h
- Cmax ([5]; human, plasma, 16 elderly volunteers, single 400 mg dose, read-out: peak plasma concentration, mean): 4200 ng/mL
- drug absorption in the elderly ([5]; single 400 mg dose): unaffected in the elderly
- peak concentrations versus renal function [6]: not affected by the degree of renal function
- MED, 0 H, mean [7]: 0.094 J/cm^2
- amount of UVA+UVB radiation to give MED versus UVA alone [7]: over 100 times less
- change of immediate MEDUVA+UVB from baseline [7]: not statistically significant
- change of immediate and delayed MEDUVA+UVB from baseline [7]: neither the changes between baseline and posttreatment immediate MEDUVA+UVB, nor between baseline and posttreatment delayed MEDUVA+UVB, were statistically significant
- change of immediate and delayed MEDUVA+UVB, a.m. versus p.m. [7]: statistically significant difference
- photosensitivity with UVA plus UVB radiation [7]: no increase in photosensitivity
- time of peak plasma concentration following dosing [8]: approximately two
